For eleven molecules, fold induction and IC50 results are on record in patent US11530229B2, “Cyano cyclobutyl compounds for CBL-B inhibition and uses thereof” (Nurix Therapeutics, Inc., priority 2019, dated 2022).

Assay [1] concerns primary human total T-cells. The assay is described as follows: T-cell activation, IL-2 secretion, Biological Example 2. The assay is classed as cell-based. Conditions: 48 hours, fold change over baseline; for fold induction at 0.3 µM: 0.3 μM inhibitor; for fold induction at 1 µM: 1 μM inhibitor; for fold induction at 3 µM: 3 μM inhibitor.
Assay [2] has as its system primary human total T-cells. The assay is described as follows: T-cell activation, CD25 surface staining, Biological Example 2. The assay is classed as cell-based. To be noted: 48 hours, fold change over baseline; for fold induction at 0.3 µM: 0.3 μM inhibitor; for fold induction at 1 µM: 1 μM inhibitor; for fold induction at 3 µM: 3 μM inhibitor.
The target of a further assay is Cbl-b (Homo sapiens (Human), UniProt Q13191). Put plainly: Cbl-b displacement assay (Cbl-b inhibition assay), Biological Example 1. Format: binding. In outline: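 Probe displacement read as TR-FRET (520/620 nm) after 1 h with 2 nM streptavidin-terbium and 150 nM BODIPY FL-labelled inhibitor probe, about EC40. Before that, compound in 1% DMSO sat 1 h at room temperature with N-Avitag biotinylated Cbl-b 36–427, 0.5 nM (High) or 0.125 nM (Low), in pH 7.5 HEPES buffer.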
Cbl-b, sequence (Q13191 36-427): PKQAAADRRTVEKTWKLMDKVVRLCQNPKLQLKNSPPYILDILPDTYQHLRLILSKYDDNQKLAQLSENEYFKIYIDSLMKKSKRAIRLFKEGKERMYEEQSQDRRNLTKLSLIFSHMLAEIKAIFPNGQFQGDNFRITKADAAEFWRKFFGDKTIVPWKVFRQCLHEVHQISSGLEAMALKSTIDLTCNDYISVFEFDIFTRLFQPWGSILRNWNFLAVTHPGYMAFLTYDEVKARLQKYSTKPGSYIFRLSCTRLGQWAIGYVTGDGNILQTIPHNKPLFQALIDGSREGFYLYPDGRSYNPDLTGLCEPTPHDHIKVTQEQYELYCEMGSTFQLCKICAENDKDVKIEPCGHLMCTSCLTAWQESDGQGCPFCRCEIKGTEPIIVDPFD

[3] abbreviates: anti-CD3 and anti-CD28 co-stimulation.
Where [4] appears, read: anti-CD3 and anti-CD28 co-stimulation, read-out: IL-2 secretion CD3/CD28 1 μM.
[5] abbreviates: anti-CD3 stimulation alone, read-out: IL-2 secretion CD3 1 μM.
Where [6] appears, read: anti-CD3 and anti-CD28 co-stimulation, read-out: CD25 staining CD3/CD28 1 μM.
Setting [7] is: anti-CD3 stimulation alone, read-out: CD25 staining CD3 1 μM.
Where [8] appears, read: 0.125 nM Cbl-b final concentration (Low), read-out: Cbl-b activity IC50 (Low).
The mark [9] stands for this setting: read-out: IC50 values in the Cbl-b inhibition assay of Biological Example 1.

Like-named read-outs stand apart in the source and are kept apart here.

As usually defined, the IC50 is the concentration at which inhibition is half-maximal.

For the molecule `Cn1cnnc1C[C@]1(c2cccc(N3Cc4c(cc(CN5CCC[C@H](C(F)(F)F)C5)nc4C4CC4)C3=O)c2)C[C@H](C#N)C1` [Compound 49, (1r,3r)-3-(3-(4-cyclopropyl-1-oxo-6-(((S)-3-(trifluoromethyl)piperidin-1-yl)methyl)-1,3-dihydro-2H-pyrrolo[3,4-c]pyridin-2-yl)phenyl)-3-((4-methyl-4H-1,2,4-triazol-3-yl)methyl)cyclobutane-1-carbonitrile], the fold induction at 0.3 µM in assay [1] (setting [3]) is above 20; in assay [2] (setting [3]), above 1.39. The fold induction at 1 µM is above 20 in assay [1] (setting [4]), above 0.85 in assay [1] (setting [5]), above 1.39 in assay [2] (setting [6]) and above 1.15 in assay [2] (setting [7]). For the same molecule, the fold induction at 3 µM is above 0.85 in assay [1] (anti-CD3 stimulation alone) and above 1.15 in assay [2] (anti-CD3 stimulation alone). Further, the 50% inhibitory concentration (IC50) at Cbl-b (setting [8]) and at Cbl-b (setting [9]) was below 1 nM each time.
`CC1CN(Cc2cc3c(c(C(F)(F)F)c2)CN(c2cccc([C@]4(Cc5nncn5C)C[C@@H](C#N)C4)c2)C3=O)CCCO1` (stereo partly drawn) [Compound 33, (1r,3r)-3-(3-(6-((2-methyl-1,4-oxazepan-4-yl)methyl)-1-oxo-4-(trifluoromethyl)isoindolin-2-yl)phenyl)-3-((4-methyl-4H-1,2,4-triazol-3-yl)methyl)cyclobutane-1-carbonitrile]: the fold induction at 0.3 µM in assay [1] (setting [3]) was at most 15; in assay [2] (setting [3]), at most 1.24. Besides, the fold induction at 1 µM in assay [1] (setting [4]) is at most 15; in assay [1] (setting [5]), 0.4 to 0.85; in assay [2] (setting [6]), at most 1.24; in assay [2] (setting [7]), at most 1. Besides, the fold induction at 3 µM in assay [1] (anti-CD3 stimulation alone) was 0.4 to 0.85; in assay [2] (anti-CD3 stimulation alone), at most 1. Besides, the 50% inhibitory concentration (IC50) on Cbl-b (setting [8]) lay in the range of 2 to 5 nM.
With `Cn1cnnc1C[C@]1(c2cccc(N3Cc4c(cc(CN5CCCCC(F)(F)C5)cc4C(F)(F)F)C3=O)c2)C[C@H](C#N)C1` [Compound 50, (1r,3r)-3-(3-(6-((3,3-difluoroazepan-1-yl)methyl)-1-oxo-4-(trifluoromethyl)isoindolin-2-yl)phenyl)-3-((4-methyl-4H-1,2,4-triazol-3-yl)methyl)cyclobutane-1-carbonitrile], the figures for the fold induction at 0.3 µM in assay [1] (setting [3]) and in assay [2] (setting [3]) were above 20 and above 1.39, respectively. In addition, the fold induction at 1 µM in assay [1] (setting [4]) was above 20; in assay [1] (setting [5]), above 0.85; in assay [2] (setting [6]), above 1.39; in assay [2] (setting [7]) it was above 1.15. The fold induction at 3 µM in assay [1] (anti-CD3 stimulation alone) is 0.4 to 0.85; in assay [2] (anti-CD3 stimulation alone), above 1.15. Besides, the IC50 on Cbl-b (setting [8]) and on Cbl-b (setting [9]) was 2 to 5 nM throughout.
On to `Cn1cnnc1C[C@]1(c2cccc(N3Cc4c(cc(CN5CCCOC(CO)C5)cc4C(F)(F)F)C3=O)c2)C[C@H](C#N)C1` (stereo partly drawn) [Compound 41, (1r,3r)-3-(3-(6-((2-(hydroxymethyl)-1,4-oxazepan-4-yl)methyl)-1-oxo-4-(trifluoromethyl)isoindolin-2-yl)phenyl)-3-((4-methyl-4H-1,2,4-triazol-3-yl)methyl)cyclobutane-1-carbonitrile], for which the fold induction at 0.3 µM in assay [1] (setting [3]) was at most 15; in assay [2] (setting [3]), 1.24 to 1.39. Further, the fold induction at 1 µM in assay [1] (setting [4]) is at most 15; in assay [1] (setting [5]), below 0.4; in assay [2] (setting [6]), above 1.39; in assay [2] (setting [7]), at most 1. For the same molecule, the fold induction at 3 µM in assay [1] (anti-CD3 stimulation alone) was below 0.4; in assay [2] (anti-CD3 stimulation alone) it was 1 to 1.15. Further, at Cbl-b (setting [8]), the concentration for half-maximal inhibition (IC50) was in the range of 2 to 5 nM.
For the molecule `Cn1cnnc1C[C@]1(c2cccc(N3Cc4c(cc(CN5CCCCC(CO)C5)cc4C(F)(F)F)C3=O)c2)C[C@H](C#N)C1` (stereo partly drawn) [Compound 48, (1r,3r)-3-(3-(6-((3-(hydroxymethyl)azepan-1-yl)methyl)-1-oxo-4-(trifluoromethyl)isoindolin-2-yl)phenyl)-3-((4-methyl-4H-1,2,4-triazol-3-yl)methyl)cyclobutane-1-carbonitrile], the fold induction at 0.3 µM in assay [1] (setting [3]) is at most 15; in assay [2] (setting [3]) it was above 1.39. The fold induction at 1 µM is above 20 in assay [1] (setting [4]), 0.4 to 0.85 in assay [1] (setting [5]), above 1.39 in assay [2] (setting [6]) and above 1.15 in assay [2] (setting [7]). Further, the results for the fold induction at 3 µM in assay [1] (anti-CD3 stimulation alone) and in assay [2] (anti-CD3 stimulation alone) were 0.4 to 0.85 and above 1.15, respectively. Also, the IC50 at Cbl-b (setting [8]) and at Cbl-b (setting [9]) was 1 to 2 nM throughout.
Turning to `CC1CCN(Cc2cc3c(c(C(F)(F)F)c2)CN(c2cccc([C@]4(Cc5nncn5C)C[C@@H](C#N)C4)c2)C3=O)CCO1` (stereo partly drawn) [Compound 36, (1r,3r)-3-(3-(6-((7-methyl-1,4-oxazepan-4-yl)methyl)-1-oxo-4-(trifluoromethyl)isoindolin-2-yl)phenyl)-3-((4-methyl-4H-1,2,4-triazol-3-yl)methyl)cyclobutane-1-carbonitrile], the fold induction at 0.3 µM in assay [1] (setting [3]) is at most 15; in assay [2] (setting [3]), 1.24 to 1.39. Also, the fold induction at 1 µM in assay [1] (setting [4]) is 15 to 20; in assay [1] (setting [5]), below 0.4; in assay [2] (setting [6]), above 1.39; in assay [2] (setting [7]), 1 to 1.15. In addition, the fold induction at 3 µM was in the range of 0.4 to 0.85 in assay [1] (anti-CD3 stimulation alone) and 1 to 1.15 in assay [2] (anti-CD3 stimulation alone). For the same molecule, on Cbl-b (setting [8]), the 50% inhibitory concentration (IC50) was 2 to 5 nM.
With `Cn1cnnc1C[C@]1(c2cccc(N3Cc4c(cc(CN5CCCOCC5)cc4C(F)(F)F)C3=O)c2)C[C@H](C#N)C1` [Compound 29, (1r,3r)-3-(3-(6-((1,4-oxazepan-4-yl)methyl)-1-oxo-4-(trifluoromethyl)isoindolin-2-yl)phenyl)-3-((4-methyl-4H-1,2,4-triazol-3-yl)methyl)cyclobutane-1-carbonitrile], the fold induction at 0.3 µM is at most 15 in assay [1] (setting [3]) and 1.24 to 1.39 in assay [2] (setting [3]). Also, the fold induction at 1 µM in assay [1] (setting [4]) was at most 15; in assay [1] (setting [5]) it was below 0.4; in assay [2] (setting [6]) it was 1.24 to 1.39; in assay [2] (setting [7]), above 1.15. Further, the fold induction at 3 µM in assay [1] (anti-CD3 stimulation alone) fell in the range of 0.4 to 0.85; in assay [2] (anti-CD3 stimulation alone) it was 1 to 1.15. The half-inhibitory concentration (IC50) on Cbl-b (setting [8]) was 2 to 5 nM.
As for `Cn1cnnc1C[C@]1(c2cccc(N3Cc4c(cc(CN5CC6CCC(F)(F)C6C5)cc4C(F)(F)F)C3=O)c2)C[C@H](C#N)C1` (stereo partly drawn) [Compound 47, (1r,3r)-3-(3-(6-((4,4-difluorohexahydrocyclopenta[c]pyrrol-2(1H)-yl)methyl)-1-oxo-4-(trifluoromethyl)isoindolin-2-yl)phenyl)-3-((4-methyl-4H-1,2,4-triazol-3-yl)methyl)cyclobutane-1-carbonitrile], the fold induction at 0.3 µM in assay [1] (setting [3]) is above 20; in assay [2] (setting [3]), above 1.39. For the same molecule, the fold induction at 1 µM in assay [1] (setting [4]) was above 20; in assay [1] (setting [5]), above 0.85; in assay [2] (setting [6]), above 1.39; in assay [2] (setting [7]), above 1.15. Also, the fold induction at 3 µM in assay [1] (anti-CD3 stimulation alone) was above 0.85; in assay [2] (anti-CD3 stimulation alone), above 1.15. Also, the IC50 on Cbl-b (setting [8]) and on Cbl-b (setting [9]) was 2 to 5 nM in each case.
For the molecule `Cn1cnnc1C[C@]1(c2cccc(N3Cc4c(cc(CNC5CCC(F)(F)C5)nc4C4CC4)C3=O)c2)C[C@H](C#N)C1` (stereo partly drawn) [Compound 39, (1r,3r)-3-(3-(4-cyclopropyl-6-(((3,3-difluorocyclopentyl)amino)methyl)-1-oxo-1,3-dihydro-2H-pyrrolo[3,4-c]pyridin-2-yl)phenyl)-3-((4-methyl-4H-1,2,4-triazol-3-yl)methyl)cyclobutane-1-carbonitrile], the fold induction at 0.3 µM in assay [1] (setting [3]) is at most 15; in assay [2] (setting [3]), 1.24 to 1.39. Also, the fold induction at 1 µM is at most 15 in assay [1] (setting [4]), below 0.4 in assay [1] (setting [5]), at most 1.24 in assay [2] (setting [6]) and at most 1 in assay [2] (setting [7]). The results for the fold induction at 3 µM in assay [1] (anti-CD3 stimulation alone) and in assay [2] (anti-CD3 stimulation alone) were below 0.4 and at most 1, respectively. Also, the IC50 on Cbl-b (setting [8]) and on Cbl-b (setting [9]) was 1 to 2 nM in each case.
In the case of `C[C@@H]1CN(Cc2cc3c(c(C4CC4)n2)CN(c2cccc([C@]4(Cc5nncn5C)C[C@@H](C#N)C4)c2)C3=O)CCC1(F)F` [Compound 42, (1R,3r)-3-(3-(4-cyclopropyl-6-(((R)-4,4-difluoro-3-methylpiperidin-1-yl)methyl)-1-oxo-1,3-dihydro-2H-pyrrolo[3,4-c]pyridin-2-yl)phenyl)-3-((4-methyl-4H-1,2,4-triazol-3-yl)methyl)cyclobutane-1-carbonitrile], the fold induction at 0.3 µM was 15 to 20 in assay [1] (setting [3]) and at most 1.24 in assay [2] (setting [3]). Besides, the fold induction at 1 µM in assay [1] (setting [4]) was above 20; in assay [1] (setting [5]), above 0.85; in assay [2] (setting [6]) it was at most 1.24; in assay [2] (setting [7]) it was 1 to 1.15. In addition, the fold induction at 3 µM in assay [1] (anti-CD3 stimulation alone) was above 0.85; in assay [2] (anti-CD3 stimulation alone), 1 to 1.15. The IC50 at Cbl-b (setting [8]) fell in the range of 2 to 5 nM.
Turning to `Cn1cnnc1C[C@]1(c2cccc(N3Cc4c(cc(CN5CCOCC(CO)C5)cc4C(F)(F)F)C3=O)c2)C[C@H](C#N)C1` (stereo partly drawn) [Compound 44, (1r,3r)-3-(3-(6-((6-(hydroxymethyl)-1,4-oxazepan-4-yl)methyl)-1-oxo-4-(trifluoromethyl)isoindolin-2-yl)phenyl)-3-((4-methyl-4H-1,2,4-triazol-3-yl)methyl)cyclobutane-1-carbonitrile], the fold induction at 0.3 µM in assay [1] (setting [3]) is at most 15; in assay [2] (setting [3]), at most 1.24. In addition, the fold induction at 1 µM in assay [1] (setting [4]) was at most 15; in assay [1] (setting [5]), below 0.4; in assay [2] (setting [6]), at most 1.24; in assay [2] (setting [7]) it was at most 1. For the same molecule, the fold induction at 3 µM in assay [1] (anti-CD3 stimulation alone) is below 0.4; in assay [2] (anti-CD3 stimulation alone), 1 to 1.15. The IC50 on Cbl-b (setting [8]) and on Cbl-b (setting [9]) was 1 to 2 nM throughout.
